The subject of data set [1] is renal I/R-induced acute kidney injury. Description: Ischemia/reperfusion (I/R) model of acute kidney injury. The data set is classed as in vivo, C57BL/6 mice. The procedure:
In the ischemia/reperfusion (I/R) model of acute kidney injury (AKI),[47],[48] the compounds were administered orally by gavage to C57BL/6 mice 30 min before ischemia obtained by clamping both renal arteries and veins for 25 min, followed by 24 h of reperfusion. Mice were anesthetized using xylazine (10 mg kg^–1)/ketamine (100 mg kg^–1) injected intraperitoneally. Sham treated mice were treated identically except for the temporary closure of the renal vessels. After 24 h, under reanesthesia, plasma was taken for biomarker analysis. Thereafter, mice still in deep anesthesia were sacrificed by cervical dislocation. Creatinine, BUN (blood urea nitrogen), NGAL (neutrophil gelatinase-associated lipocalin), osteopontin, and KIM1 (kidney injury molecule-1) levels were determined using the following commercially available standard assays: creatinine: Roche Diagnostics 03263991, BUN: Roche Diagnostics 04460715, NGAL: BioPorto, Kit046 + Kit042, osteopontin: R&D Systems, MOST00, KIM-1: Abnova, KA1064. To assess fibrotic effects, we used the unilateral ureteral obstruction (UOO) model in Sprague–Dawley rats.[49] For the UOO model, rats were sacrificed after 5, 8, and 11 days and the percentage of PicroSirius Red positive areas (indicator of collagen III–I deposition) were measured in 4 μm histological cross sections of the kidney after 2% paraformaldehyde perfusion fixation and paraffin embedding. The extend of kidney fibrosis was quantified based on PicroSirius Red staining of 10 renal sections about 1 mm apart from each kidney. The collagen–III-I-positive pixel counts were determined in the cortical aspect of each kidney section from 10 optical fields using a 40× objective. As the total area analyzed was identical for all kidneys under investigation, the absolute number of pixels was used as the relevant readout. Vehicle treated animals received saline gavage only. The details of PicroSirius Red staining were previously described.[22]

A further data set in a line: Microsomal clearance. Particulars: mouse, mouse microsomes; Table 3. In kind it is in vitro ADME. The procedure:
The hepatocyte clearance assay was performed as previously described.[39] For mice hepatocytes, the suspension cultures were either freshly prepared by liver perfusion or prepared from cryopreserved hepatocyte batches (pooled C57BL6 mouse hepatocytes were purchased from BioreclamationIVT (NY, USA)). For human hepatocytes, commercially available, pooled (5–20 donors), cryopreserved samples from nontransplantable liver tissues were used. For the suspension cultures, Nunc U96 PP-0.5 mL (Nunc Natural, 267245) plates were used, which were incubated in a Thermo Forma incubator from Fischer Scientific (Wohlen, Switzerland) equipped with shakers from Variomag Teleshake (Sterico, Wangen, Switzerland) for maintaining cell dispersion. The cell culture medium was William’s media supplemented with glutamine, antibiotics (100 IU/mL Penicillin-Streptomycin, Gibco), insulin, dexamethasone, and 10% fetal calf serum (FCS). Incubations of a test compound at 1 μM test concentration in suspension cultures of 1 × 10^6 cells mL^–1 (∼1 μg μL^–1 protein concentration) were performed in 96-well plates and shaken at 900 rpm for up to 2 h in a 5% CO2 atmosphere at 37 °C. After 3, 6, 10, 20, 40, 60, and 120 min, a 100 μL cell suspension in each well was quenched with 200 μL methanol containing an internal standard. Samples were then cooled and centrifuged before analysis by LC-MS/MS. […]

The next data set addresses TRPA1 (Homo sapiens, UniProt O75762). Nature of the data set: Endocannabinoid target profiling: TRPA1. The settings on record: Table S1; read-out: TRPA1 (Ki, IC50).
The next data set concerns the target canine CB2R (Canis lupus familiaris, UniProt E2RKA3). Description: cAMP assay in CHO cells. The settings on record: mean ± SD; read-out: EC50 cAMP assay, dog CB2R. The data set is classed as cell-based.
Where [2] appears, read: 3 mg kg^–1 p.o., 24 h reperfusion.
The mark [3] stands for this setting: maximal protection at 3–30 mg kg^–1.

The results in this text go back to article PMC11320734 (ACS Pharmacology & Translational Science, 2024).

Chain of canine CB2R (E2RKA3 1-360): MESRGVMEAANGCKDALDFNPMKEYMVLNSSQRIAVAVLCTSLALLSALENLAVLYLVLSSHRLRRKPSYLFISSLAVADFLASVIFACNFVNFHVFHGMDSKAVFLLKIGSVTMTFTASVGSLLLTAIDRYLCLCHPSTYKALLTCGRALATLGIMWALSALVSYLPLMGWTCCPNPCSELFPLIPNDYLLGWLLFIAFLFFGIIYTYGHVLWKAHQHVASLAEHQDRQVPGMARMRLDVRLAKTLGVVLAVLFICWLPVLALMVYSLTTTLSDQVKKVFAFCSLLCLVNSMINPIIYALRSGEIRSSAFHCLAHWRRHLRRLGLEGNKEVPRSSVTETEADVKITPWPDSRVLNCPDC
Chain of TRPA1 (O75762 whole entry, species assumed): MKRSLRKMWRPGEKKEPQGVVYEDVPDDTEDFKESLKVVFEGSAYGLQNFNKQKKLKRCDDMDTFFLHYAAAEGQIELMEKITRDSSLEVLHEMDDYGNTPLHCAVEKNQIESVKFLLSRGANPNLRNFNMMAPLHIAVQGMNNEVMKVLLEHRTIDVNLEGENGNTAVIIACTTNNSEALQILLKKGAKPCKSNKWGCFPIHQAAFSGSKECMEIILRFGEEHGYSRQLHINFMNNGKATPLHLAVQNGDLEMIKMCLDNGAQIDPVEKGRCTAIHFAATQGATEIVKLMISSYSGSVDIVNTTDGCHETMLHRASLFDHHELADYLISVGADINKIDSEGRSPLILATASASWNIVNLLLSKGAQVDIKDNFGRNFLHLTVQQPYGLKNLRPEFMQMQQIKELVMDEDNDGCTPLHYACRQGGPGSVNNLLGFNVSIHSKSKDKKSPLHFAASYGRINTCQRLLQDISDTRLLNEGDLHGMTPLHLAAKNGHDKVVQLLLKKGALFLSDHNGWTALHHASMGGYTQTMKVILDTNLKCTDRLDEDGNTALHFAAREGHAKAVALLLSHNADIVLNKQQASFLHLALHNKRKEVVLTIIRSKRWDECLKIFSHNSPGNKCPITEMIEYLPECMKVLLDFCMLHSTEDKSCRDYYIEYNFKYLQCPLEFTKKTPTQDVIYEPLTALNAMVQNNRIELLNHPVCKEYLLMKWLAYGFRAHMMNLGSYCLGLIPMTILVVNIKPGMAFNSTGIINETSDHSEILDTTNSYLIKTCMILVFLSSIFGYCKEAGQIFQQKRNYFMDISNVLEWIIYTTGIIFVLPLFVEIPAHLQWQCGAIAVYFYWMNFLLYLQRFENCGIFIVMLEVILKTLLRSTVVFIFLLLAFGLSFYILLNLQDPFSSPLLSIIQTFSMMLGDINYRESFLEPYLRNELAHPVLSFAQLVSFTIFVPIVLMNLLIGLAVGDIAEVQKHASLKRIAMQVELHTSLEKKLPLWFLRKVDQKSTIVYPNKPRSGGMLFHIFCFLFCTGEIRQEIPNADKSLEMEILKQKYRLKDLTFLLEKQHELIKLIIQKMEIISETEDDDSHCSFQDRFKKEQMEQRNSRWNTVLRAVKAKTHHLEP

Turning to `Cn1c(C(C)(C)C)cc(=NC(=O)c2cc(C(F)(F)F)ccc2OCC(C)(C)O)n1CC1CCC1` [RNB-61], in data set [1] (0.1 mg kg^–1), the “effect on I/R induced plasma creatinine levels” value is “No significant difference”. In data set [1] (setting [2]), the “reduction of BUN compared to vehicle” value came to 30% and the “reduction of plasma creatinine compared to vehicle” value is 48%. Further, in data set [1] (setting [3]), the “reduction of plasma KIM-1 compared to vehicle” value was 50%, the “reduction of plasma NGAL compared to vehicle” value was 39% and the “reduction of plasma osteopontin compared to vehicle” value is 43%. Besides, in data set [1] (mouse, in vivo), the “dose from which KIM-1 release is inhibited” value amounted to 0.3 mg kg^–1, the “dose from which NGAL release is inhibited” value is listed as 0.3 mg kg^–1 and the “dose from which osteopontin release is inhibited” value came to 3 mg kg^–1. The microsomal CLint in the data set “Microsomal clearance” was no more than 10 µL/min/mg. Also, the IC50 on TRPA1 was greater than 50000 nM. Further, the EC50 on canine CB2R stood at 1.86 ± 1.58 nM.
